Measurements reported in patent publication US20230357249A1, “ANDROGEN RECEPTOR PROTEIN DEGRADERS WITH A TRICYCLIC CEREBLON LIGAND” (THE REGENTS OF THE UNIVERSITY OF MICHIGAN, priority 2020, published 2023).

Target: T1, AR protein (Homo sapiens, UniProt P10275)
T1 construct: endogenous in cells; host or cells: VCaP
T1 sequence (P10275 1-920): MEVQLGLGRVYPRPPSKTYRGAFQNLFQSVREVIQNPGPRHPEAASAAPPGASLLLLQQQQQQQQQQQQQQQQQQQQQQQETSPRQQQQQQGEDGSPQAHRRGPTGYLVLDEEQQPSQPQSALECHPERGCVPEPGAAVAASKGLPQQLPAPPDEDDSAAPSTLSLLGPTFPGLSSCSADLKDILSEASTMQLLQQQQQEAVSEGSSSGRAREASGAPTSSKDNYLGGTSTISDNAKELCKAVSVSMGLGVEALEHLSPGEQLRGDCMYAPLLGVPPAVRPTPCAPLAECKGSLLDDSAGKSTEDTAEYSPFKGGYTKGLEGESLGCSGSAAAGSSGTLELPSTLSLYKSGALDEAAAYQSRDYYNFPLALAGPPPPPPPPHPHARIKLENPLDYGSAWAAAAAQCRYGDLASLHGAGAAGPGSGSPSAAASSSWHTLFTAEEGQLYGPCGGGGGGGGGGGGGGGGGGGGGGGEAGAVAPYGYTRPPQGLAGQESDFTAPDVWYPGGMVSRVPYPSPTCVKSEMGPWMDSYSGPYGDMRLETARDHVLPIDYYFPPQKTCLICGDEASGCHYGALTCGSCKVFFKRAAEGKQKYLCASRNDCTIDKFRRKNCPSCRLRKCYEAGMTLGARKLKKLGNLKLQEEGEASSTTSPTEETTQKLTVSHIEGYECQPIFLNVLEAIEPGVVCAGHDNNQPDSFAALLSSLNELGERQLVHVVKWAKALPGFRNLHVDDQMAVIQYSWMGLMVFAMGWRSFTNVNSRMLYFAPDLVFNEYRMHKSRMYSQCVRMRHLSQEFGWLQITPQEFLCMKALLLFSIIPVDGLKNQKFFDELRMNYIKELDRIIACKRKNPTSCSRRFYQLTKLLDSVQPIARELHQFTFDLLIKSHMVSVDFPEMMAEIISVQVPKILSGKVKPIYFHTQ
Assay: AR protein degradation in VCaP cells, Western blotting
Format: cell-based
Set-up: key to AR protein degradation VCap 10 nM / AR protein degradation VCap 100 nM: A: >90% degradation (24 hr treatment); B: >50% degradation but <90% (24 hr treatment); C: >10% degradation but <50% (24 hr treatment); D: No significant degradation (24 hr treatment)
Conditions: 24 hr treatment; for percent AR protein degradation at 0.01 µM / AR protein degradation VCap 10 nM: 10 nM; for percent AR protein degradation at 0.1 µM / AR protein degradation VCap 100 nM: 100 nM
Experimental: The appropriate cell line, e.g., prostate cancer LNCaP, Vcap, or 22RV1 cell line, was treated with Compounds of the Disclosure as indicated. The treated cells were lysed with RIPA buffer. The AR level in the cell lysates was examined by western blotting and a specific AR antibody (ab194196, Abcam, Cambridge, MA 02139) with concentration of 1:20,000. GAPDH was used as a loading control.
Bands were quantified with ImageJ software. The relative numbers of each band obtained from normalization with its corresponding GAPDH level were compared with Prism 8 software. The DC50 values were produced from Prism 8, and the DC90 values were calculated with an equation=Bottom + (Top-Bottom)/(1+10^((LogEC50-X)*HillSlope) based on DC50 and Hillslope values.
The amount of AR protein degradation in VCap and MDA-MB-453 cells caused by representative Compounds of the Disclosure at the concentrations indicated is presented in Table 4, FIG. 1, and FIG. 2.

Row | Structure (SMILES) | percent AR protein degradation at 0.01 µM [%] | percent AR protein degradation at 0.1 µM [%] | AR protein degradation VCap 10 nM | AR protein degradation VCap 100 nM
1 | CC1(C)C(Nc2ccc(C(=O)N3CCC(N4Cc5cc6c(cc5C4)C(=O)N(C4CCC(=O)NC4=O)C6=O)CC3)cc2)C(C)(C)C1Oc1ccc(C#N)c(Cl)c1 (stereo not drawn) [compound 176] | 10 to 50 | > 90 |  | 
2 | CN(c1ccc(C#N)c(Cl)c1)[C@H]1CC[C@H](NC(=O)c2ccc(N3CCC(CN4Cc5cc6c(cc5C4)C(=O)N(C4CCC(=O)NC4=O)C6=O)CC3)nn2)CC1 (stereo partly drawn) [compound 325] | > 90 | > 90 |  | 
3 | N#Cc1ccc(O[C@H]2CC[C@H](NC(=O)c3ccc4c(c3)CCN(C(=O)CN3Cc5cc6c(cc5C3)C(=O)N(C3CCC(=O)NC3=O)C6=O)C4)CC2)cc1Cl (stereo partly drawn) [compound 24] | > 90 | > 90 |  | 
4 | CC1(C)[C@H](Oc2ccc(C#N)c(Cl)c2)C(C)(C)[C@H]1N1Cc2cc(C(=O)N3CCC(CN4Cc5cc6c(cc5C4)C(=O)N(C4CCC(=O)NC4=O)C6=O)CC3)ccc2C1=O (stereo partly drawn) [compound 6] | 10 to 50 | 10 to 50 |  | 
5 | N#Cc1ccc(O[C@H]2CC[C@H](Oc3ccc(C(=O)N4CCC(N5Cc6cc7c(cc6C5)C(=O)N(C5CCC(=O)NC5=O)C7=O)CC4)cc3)CC2)cc1Cl (stereo partly drawn) [compound 11] |  |  | D | D
6 | N#Cc1ccc(O[C@H]2CC[C@H](NC(=O)c3ccc4c(c3)CCN(CC(=O)N3CCc5cc6c(cc5C3)C(=O)N(C3CCC(=O)NC3=O)C6=O)CC4)CC2)cc1Cl (stereo partly drawn) [compound 29] | 50 to 90 | > 90 |  | 
7 | C[C@H]1C[C@@H](NC(=O)c2ccc(N3CCC(N4Cc5cc6c(cc5C4)C(=O)N(C4CCC(=O)NC4=O)C6=O)CC3)cc2)CC[C@@H]1Oc1ccc(C#N)c(Cl)c1 (stereo partly drawn) [compound 16] | > 90 | > 90 |  | 
8 | N#Cc1ccc(O[C@H]2CC[C@H](N3Cc4cc(C(=O)N5CCC(CN6Cc7cc8c(cc7C6)C(=O)N(C6CCC(=O)NC6=O)C8=O)CC5)ccc4C3=O)CC2)cc1Cl (stereo partly drawn) [compound 174] |  | > 90 | D | 
9 | CN(c1ccc(C#N)c(Cl)c1)[C@H]1CC[C@H](NC(=O)c2ccc(CN3CCC(C(=O)N4Cc5cc6c(cc5C4)C(=O)N(C4CCC(=O)NC4=O)C6)CC3)cc2)CC1 (stereo partly drawn) [compound 326] | > 90 | > 90 |  | 
10 | N#Cc1ccc(N2CC[C@H]3C[C@H](NC(=O)c4ccc(N5CCC(CN6Cc7cc8c(cc7C6)C(=O)N(C6CCC(=O)NC6=O)C8=O)CC5)cc4)CC[C@H]32)cc1Cl (stereo partly drawn) [compound 26] | 10 to 50 | 50 to 90 |  | 
11 | CN(c1ccc(C#N)c(Cl)c1)[C@H]1CC[C@H](NC(=O)c2ccc(O[C@H]3CC[C@H](N4Cc5cc6c(cc5C4)C(=O)N(C4CCC(=O)NC4=O)C6=O)CC3)cc2)CC1 (stereo partly drawn) [compound 281, N-((1r,4r)-4-((3-Chloro-4-Cyanophenyl)(Methyl)Amino)Cyclohexyl)-4-(((1r,4r)-4-(6-(2,6-Dioxopiperidin-3-Yl)-5,7-Dioxo-3,5,6,7-Tetrahydropyrrolo[3,4-F]Isoindol-2(1h)-Yl)Cyclohexyl)Oxy)Benzamide] | > 90 | > 90 |  | 
12 | C[C@@H]1CCN(C(=O)c2ccc(N3CCC(CN4Cc5cc6c(cc5C4)C(=O)N(C4CCC(=O)NC4=O)C6=O)CC3)cc2)C[C@H]1Oc1ccc(C#N)c(Cl)c1 (stereo partly drawn) [compound 121] |  |  | D | D
13 | CC1(C)[C@H](Oc2ccc(C#N)c(Cl)c2)C(C)(C)[C@H]1N1Cc2cc(C(=O)N3CCC(CCN4Cc5cc6c(cc5C4)C(=O)N(C4CCC(=O)NC4=O)C6=O)CC3)ccc2C1=O (stereo partly drawn) [compound 7] | 50 to 90 | > 90 |  | 
14 | N#Cc1ccc(OC2CC3(CCC(NC(=O)c4ccc(N5CCC(CN6Cc7cc8c(cc7C6)C(=O)N(C6CCC(=O)NC6=O)C8=O)CC5)cc4)CC3)C2)cc1Cl (stereo not drawn) [compound 126] |  | 10 to 50 | D | 
15 | N#Cc1ccc(OC2CC3(CC(NC(=O)c4ccc(N5CCC(CN6Cc7cc8c(cc7C6)C(=O)N(C6CCC(=O)NC6=O)C8=O)CC5)cc4)C3)C2)cc1Cl (stereo not drawn) [compound 124] |  | 50 to 90 | D | 
16 | C[C@H]1CCN(c2ccc(C(=O)N3CCC(CN4Cc5cc6c(cc5C4)C(=O)N(C4CCC(=O)NC4=O)C6=O)CC3)cc2)CCN1c1ccc(C#N)c(Cl)c1 (stereo partly drawn) [compound 120] | 50 to 90 | 50 to 90 |  | 
17 | CN(c1ccc(C#N)c(Cl)c1)[C@H]1CC[C@H](NC(=O)c2ccc(N3CC(CN4Cc5cc6c(cc5C4)C(=O)N(C4CCC(=O)NC4=O)C6=O)C3)cc2)CC1 (stereo partly drawn) [compound 23] | > 90 | > 90 |  | 
18 | N#Cc1ccc(O[C@H]2CC[C@H](NC(=O)c3ccc(N4CC(CN5Cc6cc7c(cc6C5)C(=O)N(C5CCC(=O)NC5=O)C7=O)C4)cc3)CC2)cc1Cl (stereo partly drawn) [compound 21] | 50 to 90 | > 90 |  | 
19 | CN(c1ccc(C#N)c(Cl)c1)[C@H]1CC[C@H](NC(=O)c2ccc(N3CCC(CN4Cc5cc6c(cc5C4)C(=O)N(C4CCC(=O)NC4=O)C6=O)CC3)nc2)CC1 (stereo partly drawn) [compound 323] | > 90 | > 90 |  | 
20 | C[C@H]1C[C@@H](NC(=O)c2ccc(N3CCC(CN4Cc5cc6c(cc5C4)C(=O)N(C4CCC(=O)NC4=O)C6=O)CC3)cc2)CC[C@@H]1Oc1ccc(C#N)c(Cl)c1 (stereo partly drawn) [compound 15] | > 90 | > 90 |  | 
21 | C[C@H]1CCN(c2ccc(C(=O)N3CCC(N4Cc5cc6c(cc5C4)C(=O)N(C4CCC(=O)NC4=O)C6=O)CC3)cc2)CCN1c1ccc(C#N)c(Cl)c1 (stereo partly drawn) [compound 119] | 50 to 90 | 50 to 90 |  | 
22 | CN(c1ccc(C#N)c(Cl)c1)C1CCC(NC(=O)c2ccc(N3CCC(N4Cc5cc6c(cc5C4)C(=O)N(C4CCC(=O)NC4=O)C6=O)CC3)cc2)CC1 (stereo not drawn) [compound 19, N-((1r,4r)-4-((3-chloro-4-cyanophenyl)(methyl)amino)cyclohexyl)-4-(4-(6-(2,6-dioxopiperidin-3-yl)-5,7-dioxo-3,5,6,7-tetrahydropyrrolo [3,4-f]isoindol-2(1H)-yl)piperidin-1-yl)benzamide] | > 90 | > 90 |  | 
23 | N#Cc1ccc(OC2CCN(C(=O)Nc3ccc(C(=O)N4CCC(CN5Cc6cc7c(cc6C5)C(=O)N(C5CCC(=O)NC5=O)C7=O)CC4)cc3)CC2)cc1Cl (stereo not drawn) [compound 132] |  |  | D | D
24 | CN(c1ccc(C#N)c(Cl)c1)[C@H]1CC[C@H](NC(=O)c2ccc(N3CCC(CN4Cc5cc6c(cc5C4)C(=O)N(C4CCC(=O)NC4=O)C6=O)CC3)cn2)CC1 (stereo partly drawn) [compound 324] | > 90 | > 90 |  | 
25 | CC1(C)[C@H](Oc2ccc(C#N)c(Cl)c2)C(C)(C)[C@H]1N1Cc2cc(C(=O)N3CCC(N4Cc5cc6c(cc5C4)C(=O)N(C4CCC(=O)NC4=O)C6=O)CC3)ccc2C1=O (stereo partly drawn) [compound 5] | 10 to 50 | 10 to 50 |  | 
26 | N#Cc1ccc(O[C@H]2CC[C@H](NC(=O)c3ccc4c(c3)CCN(CC(=O)N3CCc5cc6c(cc5C3)C(=O)N(C3CCC(=O)NC3=O)C6=O)C4)CC2)cc1Cl (stereo partly drawn) [compound 28] | 50 to 90 | 50 to 90 |  | 
27 | CN(c1ccc(C#N)c(Cl)c1)[C@H]1CC[C@H](NC(=O)c2ccc(N3CCN(CC(=O)N4Cc5cc6c(cc5C4)C(=O)N(C4CCC(=O)NC4=O)C6)CC3)cc2)CC1 (stereo partly drawn) [compound 327, N-((1r,4r)-4-((3-Chloro-4-Cyanophenyl)(Methyl)Amino)Cyclohexyl)-4-(4-(2-(6-(2,6-Dioxopiperidin-3-Yl)-5-Oxo-3,5,6,7-Tetrahydropyrrolo[3,4-F]Isoindol-2(1h)-Yl)-2-Oxoethyl)Piperazin-1-Yl)Benzamide] | > 90 | > 90 |  | 
